Measurements taken from patent publication US8088818B2, “Catechol-based derivatives for treating or preventing diabetics” (National Taiwan University, priority 2006, dated 2012).

What was measured:
Insulin = Insulin concentration before and after oral administration; assay type: in vivo, rat
Excerpt: However, it is also observed that the dominant effect for reducing the blood sugar on the type I diabetic rats, which are incapable of secreting insulin.

[1] = system: rats with coronary artery ligature-reperfusion; assay: Coronary artery ligature / reperfusion model of the living rat (area at risk, infarct size); assay type: in vivo; conditions: ischaemia 45 minutes, reperfusion two hours
Description: The grown-up male rats having the weight of 250˜300 grams (Sprague-Dawley strain, purchased BioLASCO Taiwan Co., Ltd.) are anesthetized with 1.25 g/kg urethane by the abdominal cavity injection. After anaesthetization, cut the trachea, connect with the artificial respirator (Harvard Rodent Ventilator Model 983), give 15 ml/kg of the tidal volume, and control the respiratory rate at […], followed by cutting off both sides of the vagus immediately. After the intubation of the right arterial carotis, it is connected to the pressure converter (Statham P23XL transducer) so as to monitor the changes of systemic blood pressure. In addition, the rats' four limbs are connected to the silver electrode, so as to record the changes of the electrocardiogram (ECG). Blood pressures, heartbeats and electrocardiogram curves are recorded and analyzed by the software (MacLab data acquisition system, AD Instrument Pty, Castle Hill, NSW, Australia).
After all previous preparations have been done, open the ribcage by the thoracotomy and cut off the skin layers and muscles to find the rib. Burn the fourth and fifth rib close to 2 mm of the sternum in an electrical knife and stabilize the injury with the retractor followed by rending the pericardial membrane, separating the left atrial appendage gently by the cottons, and clasping the anterior interventricular branch of the left coronary artery immediately between the left atrial appendage and the pulmonary artery by a needle forceps having a silk yarn with a hook. Put loops on both ends of silk yarn to seal the wound by unclamping the retractor. Balance in 15 minutes, and if there exists cardiac arrhythmia or the systolic pressure is lower than 80 mmHg, it will be eliminated.
After the balance, the acute cardiac muscle ischaemia is caused by pushing the loop passed by a silk yarn with a hemostat downwards to be stabilized. Then, unclamp the hemostat and uplift the loop to perform a reperfusion of the coronary artery being ligated by the silk yarn. […] If the same surgical procedure is performed, the rat without administrating the drug and performing an ischaemia and an ischaemia/reperfusion is regarded as the sham group. The rundown of the ischaemia and the ischaemia/reperfusion of the present test is as follows.
Perform an ischaemia for 45 minutes and perform an ischaemia/reperfusion for 2 hours. Administrate by injecting the drug into the abdominal cavity after perform the ischaemia for 15 minutes.
Inject the approximately 2 ml, 1% methylene blue into the ischaemic area via a jugular vein, where the non-ischemic area is dyed as purple and the ischemic area or area at risk is retained as red. Subsequently, the heart is immediately took out and washed by the physiological salt solution to remove the connective tissue of the atrium and the surplus water. Cut the undyed ischemic area and weight the total ventricle to calculate the ischemic area of the ventricle. Area at risk (% of total ventricular)=(Weight of risk area)/(Total ventricular weight)×100%.
Cut the ischemic area into a slice with the thickness of approximately 1 mm. Immerse the slice into a TTC (2,3,5-triphenyltetrazolium chloride, in saline) solution, and heat the resultant solution at the 37[…] incubator for 30 minutes, followed by replacing the solvent with 10% formaldehyde solution to preserve the resulting solution for two weeks. The living cells are able to produce the dehydrogenase, which could reduce TTC to a crimson formazan precipitate, whereas the dead cells are unable to produce dehydrogenase, which decolor the formazan as a gray precipitate. Cut and weight the gray infraction area and calculate the ratio. Infract Size (% of risk area)=(Weight of infraction)/(Weight of risk area)×100%.

Normal rats = assay: Blood sugar lowering in normal rats after oral administration; assay type: in vivo, rat
Description: (a) Male Wistar rats are provided from the National Laboratory Animal Breeding and Research Center (Taipei, Taiwan), each of whose weight is about 200-250 grams, and the average age thereof is above 8 weeks. They were housed under conditions of constant temperature (25±1[…]) and controlled illumination (light time and dark time are respectively 12 hours). Food and water were available.
(§1) (d) The administration: Dissolve the medicine equivalently in deionized water, and then administrate the mentioned solution into the normal and diabetic rats by an orally perfusion. Keep with the desired concentration of the perfusion amount by taking suitable amount of the medicine solution according to the weight of the different animal.
(§2) The rats to be experimented should undergo a starvation for 8-12 hours overnight. Next day, the rats are anesthetized with 30 mg/kg pentobarbital by injecting into the abdominal cavity. After the rats fall asleep, fix the rats on the board with the rubber band. Open the groin, find the veins, bleed 0.1 ml blood from an empty stomach, and then feed the medicine into the body of the rats by taking orally. After 90 minutes, bleed and perform a centrifugation (13,000 rpm, 5 minutes) to separate the serum and the plasma. Take the 10 μl supernatant of the serum and add 1 ml reagent of the glucose kit thereinto by gently mixing. React for 5 minutes at 37 °C, followed by detecting the value of the blood sugar by means of BST330 based on the different absorption level. […] The value of the blood sugar (mg/dL) is calculated by comparing the level of redness with contrasting the standard curve.
(§3) (The value of blood sugar at postadministration)−(The value of blood sugar at preadministration)/(The value of blood sugar at preadministration)×100%
The results of the experiments are presented in the average value±the standard error (mean±SE), and the variations therebetween are evaluated according to the Student's t-test, while the variations thereamong are evaluated according to one-way ANOVA and Bonferroni's t-test, wherein P<0.05 is deemed to have apparent differences.

Type 2 diabetic rats = assay: Blood sugar lowering in insulin-induced type 2 diabetic rats after oral administration; assay type: in vivo, rat
Description: (c) Insulin-induced type 2 diabetic rats: the abdominal cavity of the male Wistar rats of 12 weeks age are injected with 0.5 IU/kg long-term insulin (MonotardR HM) three times a day for fourteen days. Then, the 10 mg/kg tolbutamide, an anti-diabetic drug of sulfonylurea class, is injected into the abdominal cavity. Phlebotomize 0.1 ml blood respectively at the preadministration and the postadministration of sixty minutes, and calculate the reduced value of the blood sugar. If the variation of the ability of lowering blood sugar is less than 10%, which is deemed as the type II (insulin resistance) diabetes rat.
as §1, §2, §3

O=C(/C=C/c1ccc(O)c(O)c1)NCCc1ccccc1 [370G (45)]
Insulin, Post-treatment (30 min) (Insulin; 1 mg/kg, p.o., post-treatment (30 min)): 14.9 ± 3.4 μIU/ml
Insulin, Pre-treatment (Insulin; 1 mg/kg, p.o., pre-treatment (baseline)): 7.7 ± 1.0 μIU/ml
secretion of insulin (in words) (Insulin; oral 1.0 mg/kg, in 60 minutes): increased
ratio of the areas at risk in the overall area ([1]; 15 mg/kg): 41.1±1.3%
ratio of the areas at risk in the overall area ([1]; 10^−6 mg/kg): 39.1±1.9%
infract size (% of risk area) ([1]; 10^−5 mole/kg (approximately 2.8 mg/kg)): 68.8±2.9%
infract size (% of risk area) ([1]; 10^−6 mole/kg (approximately 0.28 mg/kg)): 70.9±2.8
infract size (% of risk area) [1]: 62.8±1.8%
ratio of the areas at risk in the overall area [1]: 36.7±2.3%
% decrease in plasma glucose (Normal rats; 0.5 mg/kg oral, Table 14): 32.8 ± 3.4 %
Post-treatment Plasma glucose (Normal rats; 0.5 mg/kg oral, post-treatment): 81.0 ± 5.7 mg/dL
Pre-treatment Plasma glucose (Normal rats; 0.5 mg/kg oral, pre-treatment (baseline)): 120.5 ± 5.3 mg/dL
effect for reducing the blood sugar, compared among rat models (Normal rats; normal rat): strongest effect
% decrease in plasma glucose (Normal rats; normal rats, 0.01 mg/kg oral, 90 min): 11.4 ± 3.1%
% decrease in plasma glucose (Normal rats; normal rats, 0.05 mg/kg oral, 90 min): 32.0 ± 1.1 %
% decrease in plasma glucose (Normal rats; normal rats, 0.1 mg/kg oral, 90 min): 32.9 ± 2.3 %
% decrease in plasma glucose (Normal rats; normal rats, 0.5 mg/kg oral, 90 min): 32.8 ± 3.4 %
% decrease in plasma glucose (Normal rats; normal rats, 1.0 mg/kg oral, 90 min): 29.5 ± 1.7 %
reducing the blood sugar (in words) (Normal rats; normal rats, oral 0.05 to 1.0 mg/kg): phenomenon of reducing the blood sugar are shown
% decrease in plasma glucose (Type 2 diabetic rats; type 2 diabetic rats, 0.05 mg/kg oral, 90 min): 7.4 ± 2.6%
% decrease in plasma glucose (Type 2 diabetic rats; type 2 diabetic rats, 0.1 mg/kg oral, 90 min): 17.2 ± 2.6 %
% decrease in plasma glucose (Type 2 diabetic rats; type 2 diabetic rats, 0.5 mg/kg oral, 90 min): 20.1 ± 3.4 %
% decrease in plasma glucose (Type 2 diabetic rats; type 2 diabetic rats, 1.0 mg/kg oral, 90 min): 23.3 ± 3.3 %
% decrease in plasma glucose (Type 2 diabetic rats; type II diabetic rats, 0.5 mg/kg, p.o., 90 minutes): 20.0 ± 7.7%
reducing the blood sugar (in words) (Type 2 diabetic rats; type II diabetics rats, oral 0.05 to 1.0 mg/kg): phenomenon of reducing the blood sugar are shown
